Test results published in patent publication US4762823A, “Nucleosides of 5-monofluoromethyluracil and 5-difluoromethyluracil” (Sloan-Kettering Institute for Cancer Research, priority 1985, dated 1988).

What was measured:
HSV-1 = test: Antiherpes activity, inhibition of cytopathic effect (CPE), HSV-1; assay type: cell-based; conditions: Human alphaherpesvirus 1, 48 h, human foreskin monolayers, mean IC of high and low virus inocula, CPE score lowered by 10 scoring units vs control, 2 days, read-out: Inhibitory Concentration (μM) HSV-1
Procedure: (§1) Each of the nucleosides was initially dissolved in a diluent containing 60% propylene glycol and 10% EtOH; subsequent dilutions used maintenance culture medium. Agents were assessed at tenfold dilutions with final concentrations ranging from 10,000 to 0.01 micromolar. Confluent human foreskin monolayers were maintained in 96-well microtiter plates using Eagle's Minimal Essential Medium supplemented with 2% fetal bovine serum, antibiotics and glutamine using standard methods.^40 Prior to virus inoculation, the medium was removed from each well and replaced with 100 μL of agent diluted in maintenance medium with differing concentrations in each horizontal row, beginning with the highest concentration in the upper row, with subsequent tenfold dilutions in the next rows and the last (control) row fed with agent-free maintenance medium. The virus inocula were then added, suspended in 100 μL of […] medium. A high-dose inoculum which induced nearly confluent (100%) cytopathic effect (CPE) two days later was added to the first five vertical columns of the plate (1-5) and, similarly, a low-dose inoculum inducing approximately 50% CPE in each well two days later was added to the next five vertical columns (6-10). To the last two columns, virus-free medium was added to serve as uninfected control wells in order to assess direct cellular cytotoxicity at each agent dilution. The plates were then incubated at 36.5° C. in 5% CO2 in air for two days, at which time they were read. The cytopathology of each well was read using an inverted microscope and scored from 0 to 4 (0=no CPE and 4=>95% CPE); for marginal or equivocal readings a+ or - is affixed to each score. […] The mean score of each five wells in a row receiving a given agent dilution and virus inoculum was then calculated and compared with an appropriate control row receiving no agent. […] When the value fell between two rows, simple arithmetic interpolation was done to calculate the agent concentrate at the point on a slope between the mean scores in the rows above and below this point. The IC values of each agent using the high and low virus inocula were then averaged yielding a final mean IC which was expressed as a micromolar drug concentration.

herpes = test: Antiherpes activity; assay type: cell-based; conditions: statement in words on Table 1
Procedure: Each of the nucleosides was initially dissolved in a diluent containing 60% propylene glycol and 10% EtOH; subsequent dilutions used maintenance culture medium. Agents were assessed at tenfold dilutions with final concentrations ranging from 10,000 to 0.01 micromolar. […] The plates were then incubated at 36.5° C. in 5% CO2 in air for two days, at which time they were read. The cytopathology of each well was read using an inverted microscope and scored from 0 to 4 (0=no CPE and 4=>95% CPE); for marginal or equivocal readings a+ or - is affixed to each score. […] The mean score of each five wells in a row receiving a given agent dilution and virus inoculum was then calculated and compared with an appropriate control row receiving no agent. […] The IC values of each agent using the high and low virus inocula were then averaged yielding a final mean IC which was expressed as a micromolar drug concentration.

[1] = test system: human foreskin monolayers; test: Direct cellular cytotoxicity in uninfected control wells; assay type: cell-based; conditions: statement in words on Table 1
Procedure: as §1

[2] = as above; assay type: cell-based, human; conditions: foreskin cell monolayers; uninfected human foreskin monolayers; tenfold dilutions; 2 days; read-out: Toxic Concentration
Procedure: as §1

HSV-2 = test: Antiherpes activity, inhibition of cytopathic effect (CPE), HSV-2; assay type: cell-based; conditions: Human alphaherpesvirus 2, 48 h, human foreskin monolayers, mean IC of high and low virus inocula, CPE score lowered by 10 scoring units vs control, 2 days, read-out: Inhibitory Concentration (μM) HSV-2
Procedure: as §1

[3] = neutral aqueous media; Mertes, et al.; cited from earlier work
herpes simplex = conditions: cited from earlier work
many tumor systems = conditions: Heidelberger, 1965; 1970; cited from earlier work
[4] = cited from earlier work

Row | SMILES | IC (CPE score lowered by 10 units) (HSV-1) [µM] | MCC at 48 h [2] [mM] | IC (CPE score lowered by 10 units) (HSV-2) [µM] | further results
1 | O=c1[nH]c(=O)n([C@H]2C[C@H](O)[C@@H](CO)O2)cc1C(F)F [R=CHF2, R^1=H, X=H, 2'-Deoxy-5-difluoromethyluridine] | 1.4 | 1 | 1.66 | antiherpes activity (herpes): very potent antiherpes activity; cytotoxicity [1]: without serious cytotoxicity
2 | CC(=O)OC[C@H]1O[C@@H](n2cc(C)c(=O)[nH]c2=O)[C@@H](F)[C@@H]1OC(C)=O [R=CH3, R^1=Ac, X=F, 1-(3,5-di-0-acetyl-2-deoxy-2-fluoro-β-D-arabinofuranosyl)thymine, reference compound] | 0.44 | 1 | 1.23 | 
3 | O=c1[nH]c(=O)n([C@@H]2O[C@H](CO)[C@@H](O)[C@@H]2F)cc1CF [R=CH2 F, R^1=H, X=F, 1-(2'-Deoxy-2'-fluoro-β-D-arabinofuranosyl)-5-monofluoromethyluracil] | 0.21 | 1 | 0.18 | 
4 | O=c1[nH]c(=O)n([C@@H]2O[C@H](CO)[C@@H](O)[C@@H]2F)cc1C(F)F [R=CHF2, R^1=H, X=F, 1-(2'-Deoxy-2'-fluoro-β-D-arabinofuranosyl)-5-difluoromethyluracil] | 0.48 | 1 | 1.04 | 
5 | CC(=O)OC[C@H]1O[C@@H](n2cc(C(F)F)c(=O)[nH]c2=O)C[C@@H]1OC(C)=O [R=CHF2, R^1=Ac, X=H, 1-(3',5'-Di-0-acetyl-2'-deoxy-β-D-erythropentofuranosyl)-5-difluoromethyluracil] | 17 | 1 | 25.1 | antiherpes activity (herpes): very potent antiherpes activity; cytotoxicity [1]: without serious cytotoxicity
6 | O=c1[nH]cc(C(F)F)c(=O)[nH]1 [5-Difluoromethyluracil] |  |  |  | lability [3]: extremely labile in neutral aqueous media
7 | CC(=O)OC[C@H]1O[C@@H](n2cc(CF)c(=O)[nH]c2=O)C[C@@H]1OC(C)=O [R=CH2 F, R^1=Ac, X=H, 1-(3',5'-di-0-acetyl-β-D-erythropentofuranosyl)-5-monofluoromethyluracil] | > 100 | 1 | > 100 | 
8 | CC(=O)OC[C@H]1O[C@@H](n2cc(C(F)F)c(=O)[nH]c2=O)[C@@H](F)[C@@H]1OC(C)=O [R=CHF2, R^1=Ac, X=F] | 0.71 | 1 | 2.16 | 
9 | O=c1[nH]c(=O)n([C@H]2C[C@H](O)[C@@H](CO)O2)cc1CF [R=CH2 F, R^1=H, X=H, 2'-deoxy-5-monofluoromethyluridine] | > 100 | 1 | > 100 | 
10 | Cc1cn([C@@H]2O[C@H](CO)[C@@H](O)[C@@H]2F)c(=O)[nH]c1=O [FMAU, 1-(2-Deoxy-2-fluoro-β-D-arabinofuranosyl)thymine, reference compound] | 0.1 | 1 | 0.05 | 
11 | CC(=O)OC[C@H]1O[C@@H](n2cc(CF)c(=O)[nH]c2=O)[C@@H](F)[C@@H]1OC(C)=O [R=CH2 F, R^1=Ac, X=F, 1-(3,5-Di-0-acetyl-2-deoxy-2-fluoro-β-D-arabinofuranosyl)-5-monofluoromethyluracil] | 2.46 | 1 | 5.19 | 
12 | O=c1[nH]c(=O)n([C@H]2C[C@H](O)[C@@H](CO)O2)cc1C(F)(F)F [F3 TDR, 1-(2'-deoxy-β-D-erythropentofuranosyl)-5-trifluoromethyluracil] |  |  |  | activity against herpes simplex (herpes simplex; Heidelberger, 1965, 1970): has shown activity; antiherpetic (reported) (herpes simplex; reported): antiherpetic; activity against many tumor systems (many tumor systems): has shown activity; cytotoxic (reported) [4]: very cytotoxic
